Results as given in the NIST ThermoML archive (doi:10.1021/acs.jced.6b00192).

Conditions: Liquid, Vibrating tube method

CCCCOCCOCCOCCCC [5,8,11-trioxapentadecane]
mass density [kg/m3]
Conditions	283.15 K	293.15 K	303.15 K	313.15 K	323.15 K	333.15 K	343.15 K	353.15 K	363.15 K
100 kPa	891.3	882.9	874.5	866.1	857.2	849.1	840.4	832.4	823.4
1000 kPa	891.8	883.1	875.1	866.41	858.2	850	841.7	833	824.8
3000 kPa	893.2	884.8	876.6	868.1	859.8	851.6	843.5	835.1	827.1
5000 kPa	894.3	885.9	878.2	869.8	861.5	853.3	845.5	836.7	828.7
10000 kPa	897.7	889.6	881.8	873.5	865.4	857.5	849.8	841.4	833.5
15000 kPa	900.9	892.9	885.2	877.2	869.2	861.4	853.7	846	838.4
20000 kPa	904.3	896.1	888.42	880.7	873.1	865.4	857.9	850.3	842.8
25000 kPa	906.9	899.3	891.8	884.1	876.5	869	861.6	854	846.8
30000 kPa	909.9	902.3	894.9	887.1	879.8	872.6	865.3	857.9	850.9
35000 kPa	912.8	905.1	897.9	890.5	883.1	875.9	868.9	861.6	854.9
40000 kPa	915.3	907.9	900.8	893.3	886.3	879.5	872.3	865.1	858.5
50000 kPa	920.5	913.6	906.4	899.4	892.4	885.5	878.9	871.5	865.6
60000 kPa	925.4	918.2	911.8	904.9	898.8	891.6	884.7	878.2	872
